Experiment: Glucose affinity of macrocycles by fluorescence titration
Assay type: binding
Conditions: pH 7.4, 10 mM phosphate buffer
Experimental: The optic properties (fluorescence) of the given macrocycle changes between the unbound state, and the glucose-bound state. Titrating the macrocycle with glucose in the relevant glucose concentration range, and measuring the changes in fluorescence of the system can thus give binding curves for binding to glucose, which can be used to determine the glucose binding constant, Ka (and the displacement constant, Kd).
All solutions were maintained at pH 7.4 using 10 mM Phosphate buffer solution. The titration was performed using a Horiba Scientific Duetta fluorescence spectrometer with an excitation wavelength of 310 nm and monitoring emission from 320-550 nm. The excitation and emission slit width/band widths were set to 5 nm. All points were acquired using a 0.5 second integration time and 5 accumulations.
2 mg of compound 6d (Mw=3540 g/mol) was dissolved in […] of ultrapure H2O (pH 7.4, 10 mM PB). The purity of Compound 6d was previously assayed by 1H NMR spectroscopy using a known concentration of DMF in D2O as an internal standard. The purity was calibrated at 80% (40 μM). This was then diluted by a four-fold to give a 10 μM solution of Compound 6d.
D-glucose (180.16 mg) was dissolved in 1 mL 10 mM PB and allowed to stand overnight to allow for equilibration of the a and 13 anomers. This was sequentially diluted to give a 20 mM stock solution of D-glucose. 250 μL of this solution was combined with 250 μL Compound 6d stock solution to give a 10 mM D-glucose/5 μM Compound 6d.
In a 3 mL cuvette, 1500 μL of Solution 1 was diluted with 1500 μL of 10 mM phosphate buffer to give a 5 μM solution. This was titrated with Solution 2. For each addition of titrant solution (Solution 2), the equivalent volume was removed from the cuvette prior to addition to keep the cell volume constant (3000 μL). Each addition was stirred for 1 minute then stirring stopped to allow 1 minute for the sample to equilibrate before acquisition. Additions (in μL): 0, 10, 10, 10, 10, 10, 20, 20, 50, 100, 100.

Compound | Kd (glucose), calculated as 1/Ka (D-glucose titration) | Calculated Ka (glucose binding constant, 1:1 binding model) (D-glucose titration, 5 μM macrocycle, excitation 310 nm) | Kd (measured similarly to compound 6d)
CCc1c2c(CC)c3c(CC)c1CNC(=O)Nc1ccc(C(=O)NC(CCC(=O)NC(CCC(=O)O)(CCC(=O)O)CCC(=O)O)(CCC(=O)NC(CCC(=O)O)(CCC(=O)O)CCC(=O)O)CCC(=O)NC(CCC(=O)O)(CCC(=O)O)CCC(=O)O)cc1NC(=O)NCc1c(CC)c(c(CC)c(c1CC)CNC(=O)Nc1cc(C(=O)NC(CCC(=O)NC(CCC(=O)O)(CCC(=O)O)CCC(=O)O)(CCC(=O)NC(CCC(=O)O)(CCC(=O)O)CCC(=O)O)CCC(=O)NC(CCC(=O)O)(CCC(=O)O)CCC(=O)O)ccc1NC(=O)NC3)CNC(=O)Nc1cc(C(=O)NCCOCCOCCOCCN=[N+]=[N-])ccc1NC(=O)NC2 [compound 6d] | 68 µM | 14751.48 ± 637.3 M⁻¹ | 
CCc1c2c(CC)c3c(CC)c1CNC(=O)Nc1ccc(C(=O)NC(CCC(=O)O)(CCC(=O)O)CCC(=O)O)cc1NC(=O)NCc1c(CC)c(c(CC)c(c1CC)CNC(=O)Nc1cc(C(=O)NC(CCC(=O)O)(CCC(=O)O)CCC(=O)O)ccc1NC(=O)NC3)CNC(=O)Nc1cc(C(=O)NCCOCCOCCOCCOCCN=[N+]=[N-])ccc1NC(=O)NC2 [compound 24, G1 Macrocycle PEG5 Azide] |  |  | 131 µM
